What all share (type): in vivo, mouse
For one experiment, the system named is Hamp mRNA. The experiment is described as follows: Liver Hamp mRNA by qRT-PCR in Bmp6-/- males treated with gefitinib. To be noted: 7 w.o. Bmp6-/- males. On the procedure:
(§1) Bmp6 null mice (Bmp^6mlRob) obtained from E. Robertson and wild-type controls on a CD1 background were sacrificed at 7, 12, or 30 weeks of age. Liver, spleen, heart, pancreas and kidney samples were dissected for RNA isolation, flash frozen in liquid nitrogen and stored at −80° C. Hamp-deficient mice were kindly provided by S. Vaulont. They were derived on a C57BL/6 background in the lab of T. Ganz. Gonadectomies and sham operations were performed under anesthesia at 4 weeks of age. Testosterone (10 mg/kg; Sigma) was suspended in corn oil and a total volume of 60 μL per mouse was injected sc everyday for a week. To investigate the role of erythropoiesis in the down-regulation of hepcidin by testosterone, Bmp6−/− females were whole-body irradiated with a sublethal dose of 60Co (6 Gy) on day 1, administered daily doses of testosterone (1 μg/g) starting on day 2, and sacrificed on day 8. To investigate the effect of EGF signaling on testosterone-induced hepcidin down-regulation, the selective EGFR inhibitor Gefitinib (Iressa) was stirred into 1% Tween 80 and administered orally daily from days −1 to 7 to Bmp6−/− males (200 mg/kg; Euromedex). Mice were housed under controlled lighting and temperature conditions, fed a chow of normal iron content (250 mg iron/kg; SAFE, Augy, France) ad libidum, and were fasted for 14 h before they were killed. Experimental protocols were approved by the Midi-Pyrenees Animal Ethics Committee.
(§2) Total RNA from mouse liver was extracted using Trizol (Invitrogen). cDNA was synthesized using MMLV-RT (Promega). The sequences of the primers for target genes and the reference gene Hprt are listed in supplemental Table 1. Quantitative PCR reactions were prepared with LightCycler 480 DNA SYBR Green I Master reaction mix (Roche Diagnostics, Mannheim, Germany) and run in duplicate on a LightCycler 480 Instrument (Roche Diagnostics).
(§3) Data were first normalized to the invariant control Hprt and, for each sample and each target gene, −ΔCt=−[Ct target gene−Ct Hprt] was calculated. Because the numerical value of Ct is inversely related to the amount of amplicon in the reaction, the higher the −ΔCt value, the greater the amount of target amplicon. Values shown are means±SEM. Target gene expression in an individual is proportional to 2^−ΔCt. However, individual expression values are usually shown on a log scale and, because log 2 (2^−ΔCt)[…], −ΔCt data rather than 2^−ΔCt data are plotted on the y-axes. An increase of 1 on the y-axis thus corresponds to a 2-fold increase in target gene expression. ΔCt data are the observed values from experimental procedures and it is recommended that ΔCt data rather 2−ΔCt data be the subject of statistical analysis (41). […]

In another experiment the test system is C-terminal phospho-Smad2. The experiment is described as follows: C-terminal phospho-Smad2 immunoblot of liver extracts, gonadectomized Bmp6-/- females treated with testosterone. Particulars: administration of testosterone to Bmp6-/- females. On the procedure: as §1, with “Mice were housed under controlled lighting and temperature conditions, fed a chow of normal iron content (250 mg iron/kg; SAFE, Augy, France) ad libidum, and were fasted for 14 h before they were killed. Experimental protocols were approved by the Midi-Pyrenees Animal Ethics Committee.” left out
(§4) Livers were homogeneized in a FastPrep®-24 Instrument (MP Biomedicals) for 15 sec at 4 m/s. […] Liver proteins were quantified using a protein assay kit (Bio-Rad). […]
For orientation: Immunoblotting shows a protein as a band on a membrane.

In another experiment the test system is Egfr mRNA. The experiment is described as follows: Liver Egfr mRNA by qRT-PCR after testosterone administration to gonadectomized Bmp6-/- females. On the procedure:
as §1, §2, §3

The next experiment has as its system C-terminal phospho-Smad5. The experiment is described as follows: C-terminal phospho-Smad5 immunoblot of liver extracts, gonadectomized Bmp6-/- females treated with testosterone. Particulars: administration of testosterone to Bmp6-/- females. On the procedure:
as §1, with “Mice were housed under controlled lighting and temperature conditions, fed a chow of normal iron content (250 mg iron/kg; SAFE, Augy, France) ad libidum, and were fasted for 14 h before they were killed. Experimental protocols were approved by the Midi-Pyrenees Animal Ethics Committee.” left out
as §4

The test system of the next experiment is Hepcidin (Hamp) mRNA. The experiment is described as follows: Liver hepcidin (Hamp) mRNA by qRT-PCR after testosterone administration to ovariectomized Bmp6-/- mice. A general note: In qPCR the cycle at which signal appears reflects the starting amount.
The mark [1] stands for this setting: gefitinib 200 mg/kg orally daily for 7 days.
Where [2] appears, read: gonadectomized Bmp6-/- females, testosterone for a week.
The mark [3] stands for this setting: non-irradiated 7 w.o. ovariectomized Bmp6-/- mice, testosterone propionate 10 mg/kg sc daily for 7 days.
Where [4] appears, read: whole-body irradiated ovariectomized Bmp6-/- mice, daily testosterone days 2 to 8.

Structures are written as SMILES.

On to `COc1cc2ncnc(Nc3ccc(F)c(Cl)c3)c2cc1OCCCN1CCOCC1` [gefitinib, 4-quinazolinamine, N-(3-chloro-4-fluorophenyl)-7-methoxy-6-[3-(4-morpholinyl)propoxy]-(9CI)], for which, in the experiment on Hamp mRNA (setting [1]), the “Hamp mRNA -ΔΔCt (gefitinib vs vehicule)” value was determined as 2.76 and the “Hamp mRNA mean -ΔCt (Ct Hprt - Ct Hamp)” value is 4.02. In addition, the “Hamp expression on average higher than in mice treated with vehicule” value with Hamp mRNA (gefitinib 200 mg/kg orally daily for 7 days, liver mRNA) is reported as 6.8 fold. The “Effect on Hamp mRNA levels (in words)” value in the experiment with Hamp mRNA (gefitinib daily for 7 days) is listed as “significant induction of Hamp mRNA levels”.

For the molecule `CCC(=O)O[C@H]1CC[C@H]2[C@@H]3CCC4=CC(=O)CC[C@]4(C)[C@H]3CC[C@]12C` [testosterone, testosterone propionate], in the experiment with C-terminal phospho-Smad2, the “C-terminal Smad2 phosphorylation in liver (in words)” value is given as “increased”. In addition, in the experiment on Egfr mRNA (setting [2]), the “Egfr mRNA -ΔΔCt (testosterone vs vehicule)” value is recorded as 1.72 and the “Egfr mRNA mean -ΔCt (Ct Hprt - Ct Egfr)” value is given as 0.88. Besides, in the experiment on Egfr mRNA (gonadectomized Bmp6-/- females, testosterone for a week, liver mRNA), the “Egfr expression increased on average (vs vehicule)” value is listed as 3.3 fold. Also, in the experiment on Egfr mRNA (ovariectomized Bmp6-/- females treated with testosterone for a week), the “Effect on liver Egfr expression (in words)” value is listed as “induced”. The “C-terminal Smad phosphorylation (Smad5) in liver (in words)” value in the experiment on C-terminal phospho-Smad5 is “reduced”. Besides, in the experiment on Hepcidin (Hamp) mRNA (irradiated ovariectomized Bmp6-/- females, testosterone propionate 10 mg/kg days 2 to 8), the “Effect on hepcidin expression in irradiated mice (in words)” value was “downregulation of hepcidin expression to levels similar to those observed in non irradiated control mice”. Moreover, in the experiment with Hepcidin (Hamp) mRNA (setting [3]), the “Hamp mRNA -ΔΔCt (testosterone vs vehicule)” value is given as −3.95 and the “Hamp mRNA mean -ΔCt (Ct Hprt - Ct Hamp)” value amounted to 1.27. Moreover, the “Hepcidin expression repressed on average (vs vehicule)” value in the experiment with Hepcidin (Hamp) mRNA (non-irradiated 7 w.o. ovariectomized Bmp6-/- mice, testosterone propionate 10 mg/kg sc daily for 7 days, liver mRNA) turned out to be 15.4 fold. The “Hepcidin expression reduced on average (vs vehicule)” value in the experiment with Hepcidin (Hamp) mRNA (whole-body irradiated (60Co, 6 Gy) ovariectomized Bmp6-/- mice, daily testosterone days 2 to 8) was determined as 16.3 fold. Moreover, in the experiment on Hepcidin (Hamp) mRNA (setting [4]), the “Hamp mRNA -ΔΔCt (testosterone vs vehicule)” value is given as −4.03 and the “Hamp mRNA mean -ΔCt (Ct Hprt - Ct Hamp)” value is listed as 0.81.

The values above are taken from patent publication US20160051556A1, “Method and Pharmaceutical Composition for use in the Treatment of Chronic Liver Diseases Associated with a Low Hepcidin Expression” (INSERM (INSTITUT NATIONAL DE LA SANTÉ ET DE LA RECHERCHE …, priority 2013, published 2016).
